# Measured values published in patent publication US8501810B2, “Guanidino acetic acid used as an animal food additive” (AlzChem Trostberg GmbH, priority 2004, dated 2013).
# Tests used:
# [1] = Feed for growing hens, additive in air-dried feed, 42 days' growing duration; format: in vivo
# Source text: 1.4 Feed for Growing Hens
# In addition, with this feed additive, the feed consumption decreased by about 6% compared with previous feeding methods.
# In addition, it was found in this experiment that even an addition of 0.032% by weight of guanidinoacetic acid (0.32 g/kg) to the air-dried feed increased the final weight by 3% for 42 days' growing duration. The feed consumption decreased by 3% compared with previous feeding methods.
# [2] = Comparative example: creatine in the feed for growing hens, 41 days growing duration; format: in vivo; details: 0.2% (2 g/kg) in air-dried feed
# Source text: 2. Comparative Example (According to EP 920 689)
# The effect of the addition of creatine in the feed for growing hens was investigated.
# The feed consumption decreased by about 2-3% compared with previous feeding methods.
# [3] = 1.112% in base feed, also in combination with methionine; cited from earlier work
# [4] = Stability in acidic aqueous solution; format: physicochemical
# Source text: Thus in contrast to creatine, the majority of the compounds administered or fed, guanidinoacetic acid and/or salts of guanidinoacetic acid, are not degraded by instability reactions, for example in the stomach, and excreted before resorption, but are in fact available in the corresponding physiological metabolic reactions.
# [5] = young rats, cited from earlier work
# Staphyllococcus aureus = details: cited from earlier work
# [6] = control group, 0.04% by weight (0.4 g/kg) in air-dried feed
# [7] = 0.032% by weight (0.32 g/kg) in air-dried feed
# [8] = 0.092% by weight (0.92 g/kg) in air-dried feed
smiles,measurement,setting,value
"CN(CC(=O)O)C(=N)N.O [creatine monohydrate, reference compound]",decrease in feed consumption,[1]; [6],no decreased feed consumption
same,increase in the final weight,[1]; [6],no increase in the final weight
CN(CC(=O)O)C(=N)N [creatine],decrease in feed consumption compared with previous feeding methods,[2],2-3%
same,increase in the final weight compared with previous feeding methods,[2],4%
same,meat quality,[2],improved quality
same,nature of the increase in weight (lean-body mass index),[2],"only by meat gain, but not by fat gain"
N=C(N)NCC(=O)O [guanidinoacetic acid],feed utilization,[3],significant decrease
same,weight gain,[3],significant decrease
same,decrease in feed consumption compared with previous feeding methods,[1]; [7],3%
same,increase in the final weight,[1]; [7],3%
same,decrease in feed consumption compared with previous feeding methods,[1]; [8],about 6%
same,increase in the final weight compared with previous feeding methods,[1]; [8],7%
same,meat quality,[1]; [8],improved quality
same,nature of the increase in weight (lean-body mass index),[1]; [8],"solely by meat gain, but not by fat gain or water accumulation"
same,stability in acidic aqueous solution in contrast to creatine and creatine monohydrate,[4],significantly higher stability
same,creatine content in the skeletal musculature and in the heart muscle,[5]; additional administration of methionine,increased
same,effect on the muscle creatine level,[5]; in combination with folacin and vitamin B12,no effect
same,effect on growth,[5],inhibitory activity
same,use against bacterial infections in animal experiments,Staphyllococcus aureus,successfully used
